Patent US8114850B2, “Antiproliferative activity of G-rich oligonucleotides and method of using same to bind to nucleolin” (Advanced Cancer Therapeutics, LLC, priority 1999, dated 2012)

Experiments:
DU145 cells = assay: MTT cell growth assay, DU145 cells; assay type: cell-based, human; settings: 15 uM on day 1, half the initial dose on days 2-4; 3′-propylamino oligonucleotides; vs water control; FIG. 1A
Description: (§1) Cells were plated at low density ([…] cells per well, depending on cell line) in the appropriate serum-supplemented medium in 96-well plates (one plate per MTT assay time point) and grown under standard conditions of cell culture. The following day (day 1) oligonucleotide, or water as control, was added to the culture medium to give a final concentration of 15 uM. Further oligonucleotide, equivalent to half the initial dose, was added to the culture medium on days two, three and four.
(§2) Cells were assayed using the MTT assay (Morgan (1998) Methods. Mol. Biol. 79, 179-183) on days one, three, five, seven and nine after plating. The culture medium was not changed throughout the duration of the experiment (which was the time required for untreated cells to grow to confluence). Experiments were performed in triplicate and bars represent the standard error of the data.

HeLa cells = assay: MTT cell growth assay, HeLa cells; assay type: cell-based, human; settings: 15 uM on day 1, half the initial dose on days 2-4; 3′-propylamino oligonucleotides; vs water control; FIG. 1C
Description: as §1, §2

[1] = biological target: T1, GRO-binding protein/nucleolin (HeLa nuclear extracts) (Homo sapiens, UniProt P19338); assay: UV cross-linking of oligonucleotides to HeLa nuclear extracts; settings: labeled oligonucleotide with HeLa nuclear extracts; FIG. 6C
T1 construct: HeLa nuclear extracts used in EMSAs were purchased from Promega Inc. (bandshift grade); host or cells: HeLa nuclear extract (bandshift grade), purchased
T1 sequence (P19338 whole entry): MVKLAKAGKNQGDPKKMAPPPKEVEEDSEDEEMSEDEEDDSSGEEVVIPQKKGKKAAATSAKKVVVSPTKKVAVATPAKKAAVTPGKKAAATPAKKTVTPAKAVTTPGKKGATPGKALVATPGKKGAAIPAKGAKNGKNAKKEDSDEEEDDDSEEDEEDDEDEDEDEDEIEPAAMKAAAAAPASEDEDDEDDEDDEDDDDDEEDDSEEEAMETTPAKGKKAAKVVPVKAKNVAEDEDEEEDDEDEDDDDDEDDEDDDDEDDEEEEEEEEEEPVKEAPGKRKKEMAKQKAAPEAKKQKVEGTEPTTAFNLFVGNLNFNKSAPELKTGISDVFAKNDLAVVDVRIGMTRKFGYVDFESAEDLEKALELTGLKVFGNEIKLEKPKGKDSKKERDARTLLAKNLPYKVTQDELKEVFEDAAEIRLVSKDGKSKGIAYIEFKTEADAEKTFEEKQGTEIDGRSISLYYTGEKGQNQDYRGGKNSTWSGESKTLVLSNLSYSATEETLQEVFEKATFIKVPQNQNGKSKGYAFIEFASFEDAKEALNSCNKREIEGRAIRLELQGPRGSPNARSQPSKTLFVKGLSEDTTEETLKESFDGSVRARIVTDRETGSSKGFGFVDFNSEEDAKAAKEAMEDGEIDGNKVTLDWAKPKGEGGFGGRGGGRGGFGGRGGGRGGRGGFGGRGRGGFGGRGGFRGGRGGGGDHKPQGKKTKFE
Description: For the UV crosslinking experiments, samples were incubated as described above (EMSA). They were then placed on ice and irradiated at 5 cm from the source using the “autocross link” function of a Stratagene UV Stratalinker. Following irradiation, samples were electrophoresed under denaturing conditions on a 8% polyacrylamide-SDS gel using a standard Tris glycine buffer and visualized by autoradiography.
To determine the approximate molecular weight of the protein involved in complex A, and to confirm that competition for this complex results from direct binding of the protein to oligonucleotides, a UV cross-linking study was conducted. 5′-Labeled oligonucleotides and HeLa nuclear extracts were incubated alone or in the presence of unlabeled competitor oligonucleotides.
The samples were then irradiated with UV light resulting in cross-link formation between protein residues and thymidines in the oligonucleotide. The protein was thus radiolabeled and could be detected on a SDS-polyacrylamide gel.

[2] = system: MDA-MB-231 breast cancer cells; assay: MTT cell growth assay, MDA-MB-231 cells; assay type: cell-based, human; settings: for growth of MDA-MB-231 cells (MTT): 15 uM on day 1, half the initial dose on days 2-4, 3′-propylamino oligonucleotides, vs water control, FIG. 1B
Description: Cells were plated at low density ([…] cells per well, depending on cell line) in the appropriate serum-supplemented medium in 96-well plates (one plate per MTT assay time point) and grown under standard conditions of cell culture. The following day (day 1) oligonucleotide, or water as control, was added to the culture medium to give a final concentration of 15 uM. Further oligonucleotide, equivalent to half the initial dose, was added to the culture medium on days two, three and four. Cells were assayed using the MTT assay (Morgan (1998) Methods. Mol. Biol. 79, 179-183) on days one, three, five, seven and nine after plating. The culture medium was not changed throughout the duration of the experiment (which was the time required for untreated cells to grow to confluence). Experiments were performed in triplicate and bars represent the standard error of the data. For the experiment shown in FIG. 7A, MDA-MB-231 breast cancer cells (5×10^2 cells per well) were plated in a 96-well plate. After twenty-four hours, a single dose of oligonucleotide, or equal volume of PBS as a control, was added to the culture medium to a final concentration of 10 uM. Viable cells were assessed seven days after plating using the MTT assay. For the experiment using 3′-unmodified oligonucleotides (FIG. 7D), serum-supplemented medium was replaced by serum-free medium containing oligonucleotide (or serum-free medium alone in control wells). After incubation at 37° C. for four hours, fetal calf serum (Life Technologies, Inc.) was added to the medium to give 10% v/v.

HS27 cells = assay: MTT cell growth assay, non-malignant HS27 cells; assay type: cell-based; settings: compared to most malignant cell lines; FIG. 2
Description: as §1, §2

[3] = system: hematopoietic stem cell line (ATCC 2037); assay: MTT dose dependence, non-malignant hematopoietic stem cell line; assay type: cell-based, mouse; settings: FIG. 3
Excerpt: (§3) FIG. 3: MTT assays showing the dose dependence of growth modulation by GR029A for leukemic cell lines, U937 and […], and a non-malignant mouse hematopoietic stem cell line (ATCC 2037).

K562 cells = assay: MTT dose dependence, leukemic cell line K562; assay type: cell-based; settings: FIG. 3
Excerpt: as §3

[4] = biological target: T2, TEL-binding protein (GRO-binding protein/nucleolin, MDA-MB-231 nuclear extracts) (Homo sapiens, UniProt P19338); assay: Competitive EMSA, labeled TEL and MDA-MB-231 nuclear extracts; settings: 10 nM unlabeled oligonucleotide; labeled TEL, MDA-MB-231 nuclear extracts
T2 construct: Nuclear and cytoplasmic extracts from MDA-MB-231 cells were prepared using the protocol described in F. M. Ausubel et al; endogenous in cells; host or cells: MDA-MB-231 nuclear extract, prepared in house
T2 sequence (P19338 whole entry): as above

[5] = system: MDA-MB-231 breast cancer cells; assay: Chemotherapeutic agent and GRO combination, MTT assay; assay type: cell-based, human; settings: cisplatin 0.5 µg/ml, GR029A 8 uM added after two hours, MTT after six days
Description: Cisplatin (in 1% DMSO solution to give a final concentration of […]) was added to the medium of MDA-MB-231 breast cancer cells growing in culture. After two hours, GR029A (in PBS solution to give a final concentration of 8 uM) was added to the medium. After six days, the relative number of viable cells was determined using the MTT assay. Cells treated with GR029A alone received an appropriate volume of 1% DMSO in place of cisplatin. Cells treated with cisplatin alone received an appropriate volume of PBS in place of GR029A.

U937 cells = assay: MTT dose dependence, leukemic cell line U937; assay type: cell-based; settings: FIG. 3
Excerpt: as §3

5′-GTTGTTTGG GGTGGT-3′ (GTTGTTTGGGGTGGT; DNA, backbone not given here; further chemistry not fully specified) [GRO15A]
growth of DU145 cells (MTT) (DU145 cells): modulated proliferation | growth of HeLa cells (MTT) (HeLa cells): modulated proliferation | UV cross-linked protein complex (approximately 100 kDa) [1]: crosslinked to a protein | growth of MDA-MB-231 cells (MTT) [2]: modulated proliferation

5′-TTTGGTGGTGGTGG TTGTGGTGGTGGTGG-3′ [GR029A]
growth of DU145 cells (MTT) (DU145 cells): modulated proliferation | growth modulatory effect on non-malignant HS27 cells (HS27 cells): lesser growth modulatory effect | growth modulatory effect, non-malignant hematopoietic stem cell line (ATCC 2037) [3]: lesser growth modulatory effect | growth of HeLa cells (MTT) (HeLa cells): modulated proliferation | UV cross-linked protein complex (approximately 100 kDa) [1]: formed this approximately 100 kDa complex | antiproliferative effect, K562 leukemia cells (K562 cells): antiproliferative effects | growth of MDA-MB-231 cells (MTT) [2]: modulated proliferation | antiproliferative activity, MDA-MB-231 ([2]; single 10 uM dose, FIG. 7A): active | competition for protein binding in competitive EMSA [4]: competed strongly | growth modulation [5]: 5% | antiproliferative effect, U937 leukemia cells (U937 cells): antiproliferative effects
